In patent publication US20030108490A1, “Method and test kit for avoiding long-term failures in root canal treatments” (priority 2000, published 2003):
Several values for one entry are separate records, joined by “and”; a condition that tells them apart may be missing. Identical values can stand only once. Like-named read-outs stand apart in the source and are kept apart here.

Key:
[1] = tested on: MMP-8; details: for MMP-8 detected in the root canals: pooled data
Excerpt: 10 patients (11 teeth), with noncontributory medical histories, suffering from apical periodontitis, were selected for the collection of the root canal exudate samples. […] The sample collection was done with the approval of Ethical Committee of Helsinki University Faculty of Medicine, and with the patient's informed consent. The samples were collected during three consecutive appointments with two-week intervals, during which the root canal treatment was completed.
Primary access to the pulp and root canals was made according to regular treatment protocol. The instrumentation of the root canal was started with size 20 or 25 ISO file. X-ray was taken to determine the preparation length. At that time point, a sterile paper point was inserted into the root canal up to the preparation length for two minutes to absorb exudate from the root canal and periapical lesion. The root canals were then instrumented according to standard root canal treatment protocol. Finally, CaOH2 paste was inserted into the canal, and the access cavity was sealed.
After two weeks the root canals were reopened. After quick drying of the canals, a sterile paper point was inserted into the canal for two min for the sample collection. If the canal appeared dry, a drop of sterile saline was inserted to allow the absorption of the sample into the paper point. The root canal was then rinsed, dried and CaOH2 paste was inserted into the canal. After two weeks the procedure for the sample collection was repeated, and the root canals were filled with gutta percha and sealer in normal fashion.
Concentration of MMP-8 in the samples was determined from the elution buffer by a time-resolved immunofluorescence assay as described previously (Hanemaaijer et al., 1997). The monoclonal MMP-8 specific 8708 and 8706 antibodies were used as a catching antibody and tracer antibody, respectively. The tracer antibody was labeled using europium chelate. The assay buffer contained 20 mM Tris-HCl, pH 7.5, 0.5 M NaCl, 5 mM CaCl2, 50 μM ZnCl2, 0.5% bovine serum albumin, 0.5% sodium azide, and 20 mg/l DTPA. Samples were diluted in assay buffer and incubated for one h, followed by incubation for one h with tracer antibody. Enhancement solution was added, and after 5 min fluorescence was measured using a 1234 Delfia Research Fluorometer (Wallac, Turku, Finland).
Kruskall-Wallis 1-way ANOVA was used to analyze the degree of difference in the MMP-8 levels between the different appointments within each sample site.

[2] = obturated after one week of intracanal disinfection; cited from earlier work
[3] = tested on: bacteria in the canals; details: after 1-2 week medication, in most cases; cited from earlier work

With `[Ca+2].[OH-].[OH-]` [Ca(OH)2, calcium hydroxide] the “levels of MMP-8 in the exudate” value ([1]; patients with initially high levels (over 1000 ng/ml), second appointment, after two weeks of treatment) was “undetectable levels”, the “MMP-8 detected in the root canals” value ([1]; necrotic teeth, after mechanical preparation and first local medication (2nd visit)) was “a relatively high amount of MMP-8 was detected” and the “MMP-8 detected in the root canals” value ([1]; after renewal of the local medication for fortnight (3rd visit)) was “no longer detected”. The “levels of MMP-8 in the root canal samples” value ([1]; two other patients with initial value of 0, second appointment) was 100 to 1000 ng/mL, the “teeth that failed to show any healing in the periapical lesion area after one year” value [2] was 26% and 24% and the “cultivable bacteria in the canals” value [3] was “no cultivable bacteria”.
